molecular target: T1, Recombinant human liver GK1 (GST-GK) (Homo sapiens, UniProt P35557); test: In vitro glucokinase activity (G6PDH-coupled NADH assay); type: biochemical; details: 30° C., 5 mM D-glucose, 10% DMSO
T1 construct: made in house; host or cells: E. coli
T1 sequence (P35557 1-466 isoform P35557-2): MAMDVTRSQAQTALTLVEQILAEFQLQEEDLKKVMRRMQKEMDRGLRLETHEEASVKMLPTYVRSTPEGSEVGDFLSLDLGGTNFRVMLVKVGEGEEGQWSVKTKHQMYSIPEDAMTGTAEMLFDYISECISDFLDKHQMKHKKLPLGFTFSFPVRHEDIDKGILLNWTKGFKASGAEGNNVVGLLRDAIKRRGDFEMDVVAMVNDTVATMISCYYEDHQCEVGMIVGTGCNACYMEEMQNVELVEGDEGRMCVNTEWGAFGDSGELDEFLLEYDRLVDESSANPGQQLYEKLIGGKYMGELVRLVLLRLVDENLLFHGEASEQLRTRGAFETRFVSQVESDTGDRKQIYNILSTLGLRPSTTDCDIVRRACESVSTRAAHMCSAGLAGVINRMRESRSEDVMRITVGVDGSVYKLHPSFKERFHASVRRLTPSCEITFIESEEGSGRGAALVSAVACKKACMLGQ
In short: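 Activation measured as the rate of OD340 rise from G6PDH-coupled NADH production, relative to 10% DMSO control, reported as SC1.5 (concentration for 50% activity increase). Conditions: 30° C, pH 7.1 Hepes, 5 mM glucose, 1 mM ATP, purified recombinant GST-human GK1, compound preincubated 10 min before enzyme addition.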

| SC1.5 (concentration of activator that produced a 50% increase in the activity of GK) | SMILES |
| --- | --- |
| 0.021 µM | CC(C)(O)Cn1ccc(NC(=O)[C@H](CC2CCCCC2)N2CC(Oc3cccc(Br)c3)=CC2=O)n1 [Example 205, (S)-2-[4-(3-bromo-phenoxy)-2-oxo-2,5-dihydro-pyrrol-1-yl]-3-cyclohexyl-N-[1-(2-hydroxy-2-methyl-propyl)-1H-pyrazol-3-yl]-propionamide] |
| 0.036 µM | O=C(Nc1ccn(C[C@H](O)CO)n1)[C@H](CC1CCCCC1)N1CC(Oc2c(F)cccc2F)=CC1=O [Example 37, (S)-3-Cyclohexyl-2-[4-(2,6-difluoro-phenoxy)-2-oxo-2,5-dihydro-pyrrol-1-yl]-N-[1-((S)-2,3-dihydroxy-propyl)-1H-pyrazol-3-yl]-propionamide] |
| 0.011 µM | CC(C)(O)Cn1ccc(NC(=O)[C@H](CC2CCCCC2)N2CC(Oc3cccc(F)c3F)=CC2=O)n1 [Example 200, (S)-3-cyclohexyl-2-[4-(2,3-difluoro-phenoxy)-2-oxo-2,5-dihydro-pyrrol-1-yl]-N-[1-(2-hydroxy-2-methyl-propyl)-1H-pyrazol-3-yl]-propionamide] |
| 1.832 µM | CC(C)OC1=CC(=O)N([C@@H](CC2CCCC2)C(=O)Nc2ccn(CC(C)(C)O)n2)C1 [Example 15, (S)-3-Cyclopentyl-N-[1-(2-hydroxy-2-methyl-propyl)-1H-pyrazol-3-yl]-2-(4-isopropoxy-2-oxo-2,5-dihydro-pyrrol-1-yl)-propionamide] |
| 0.028 µM | CC(C)(O)Cn1ccc(NC(=O)[C@H](CC2CCCCC2)N2CC(Oc3c(F)cccc3Cl)=CC2=O)n1 [Example 67, (S)-2-[4-(2-Chloro-6-fluoro-phenoxy)-2-oxo-2,5-dihydro-pyrrol-1-yl]-3-cyclohexyl-N-[1-(2-hydroxy-2-methyl-propyl)-1H-pyrazol-3-yl]-propionamide] |
| 0.055 µM | O=C(O)c1ccc(NC(=O)[C@H](CC2CCCCC2)N2CC(Oc3c(F)ccc(Cl)c3F)=CC2=O)nc1 [Example 74, 6-{(S)-2-[4-(3-Chloro-2,6-difluoro-phenoxy)-2-oxo-2,5-dihydro-pyrrol-1-yl]-3-cyclohexyl-propionylamino}-nicotinic acid] |
| 0.477 µM | CC(C)(O)Cn1ccc(NC(=O)[C@H](CC2CCCCO2)N2CC(Oc3c(F)cccc3F)=CC2=O)n1 (stereo partly drawn) [Example 93, (S)-2-[4-(2,6-Difluoro-phenoxy)-2-oxo-2,5-dihydro-pyrrol-1-yl]-N-[1-(2-hydroxy-2-methyl-propyl)-1H-pyrazol-3-yl]-3-(tetrahydro-pyran-2-yl)-propionamide] |
| 0.984 µM | CCOc1cccc(OC2=CC(=O)N([C@@H](C[C@H](C)OCC)C(=O)Nc3ccn(CC(C)(C)O)n3)C2)c1F [Example 259, (2S,4S)-4-Ethoxy-2-[4-(3-ethoxy-2-fluoro-phenoxy)-2-oxo-2,5-dihydro-pyrrol-1-yl]-pentanoic acid [1-(2-hydroxy-2-methyl-propyl)-1H-pyrazol-3-yl]-amide] |
| 2.867 µM | O=C(Nc1ccn(C[C@@H](O)CO)n1)C(CC1(F)CCCC1)N1CC(Oc2c(F)cccc2F)=CC1=O (stereo partly drawn) [Example 159, 2-[4-(2,6-Difluoro-phenoxy)-2-oxo-2,5-dihydro-pyrrol-1-yl]-N-[1-((R)-2,3-dihydroxy-propyl)-1H-pyrazol-3-yl]-3-(1-fluoro-cyclopentyl)-propionamide] |

The next lines start with the compound.

| SMILES | SC1.5 (concentration of activator that produced a 50% increase in the activity of GK) |
| --- | --- |
| CCOc1ccccc1OC1=CC(=O)N([C@@H](CC(C)C)C(=O)Nc2ccn(C)n2)C1.Cl [Example 82, (S)-2-[4-(2-Ethoxy-phenoxy)-2-oxo-2,5-dihydro-pyrrol-1-yl]-4-methyl-pentanoic acid (1-methyl-1H-pyrazol-3-yl)-amide Hydrochloride] | 2.591 µM |
| CC(C)C[C@@H](C(=O)Nc1cnccn1)N1CC(Oc2cccc(C(C)(C)O)c2F)=CC1=O [Example 247, (S)-2-{4-[2-Fluoro-3-(1-hydroxy-1-methyl-ethyl)-phenoxy]-2-oxo-2,5-dihydro-pyrrol-1-yl}-4-methyl-pentanoic acid pyrazin-2-ylamide] | 2.59 µM |
| CC(C)C[C@@H](C(=O)Nc1ccn(C[C@@H](O)CO)n1)N1CC(Oc2cccc(Cl)c2Cl)=CC1=O.Cl [Example 80, (S)-2-[4-(2,3-Dichloro-phenoxy)-2-oxo-2,5-dihydro-pyrrol-1-yl]-4-methyl-pentanoic acid [1-((R)-2,3-dihydroxy-propyl)-1H-pyrazol-3-yl]-amide Hydrochloride] | 0.211 µM |
| CCOc1ccc(F)c(OC2=CC(=O)N([C@@H](CC(C)C)C(=O)Nc3ccn(C[C@@H]4COC(C)(C)O4)n3)C2)c1F [Example 116, (S)-2-[4-(3-Ethoxy-2,6-difluoro-phenoxy)-2-oxo-2,5-dihydro-pyrrol-1-yl]-4-methyl-pentanoic acid [1-((R)-2,2-dimethyl-[1,3]dioxolan-4-yl-methyl)-1H-pyrazol-3-yl]-amide] | 0.22 µM |
| Cc1cccc(OC2=CC(=O)N([C@@H](CC(C)C)C(=O)Nc3ccn(CCO[Si](C)(C)C(C)(C)C)n3)C2)c1F [Example 132, (S)-2-[4-(2-Fluoro-3-methyl-phenoxy)-2-oxo-2,5-dihydro-pyrrol-1-yl]-4-methyl-pentanoic acid {1-[2-(t-butyl-dimethyl-silanyloxy)-ethyl]-1H-pyrazol-3-yl}-amide] | 0.577 µM |
| CC(C)C[C@@H](C(=O)Nc1ccn(C[C@@H](O)CO)n1)N1CC(Oc2cccc(Cl)c2F)=CC1=O [Example 97, (S)-2-[4-(3-Chloro-2-fluoro-phenoxy)-2-oxo-2,5-dihydro-pyrrol-1-yl]-4-methyl-pentanoic acid [1-((R)-2,3-dihydroxy-propyl)-1H-pyrazol-3-yl]-amide] | 0.168 µM |
| O=C(Nc1ccn(C[C@@H](O)CO)n1)[C@H](Cc1c(F)cccc1F)N1CC(Oc2ccccc2Cl)=CC1=O [Example 185, (S)-2-[4-(2-chloro-phenoxy)-2-oxo-2,5-dihydro-pyrrol-1-yl]-N-[1-((R)-2,3-dihydroxy-propyl)-1H-pyrazol-3-yl]-3-(2,6-difluorophenyl)-propionamide] | 0.371 µM |
| COc1cccc(OC2=CC(=O)N(C(CC(C)(C)F)C(=O)Nc3ccn(C[C@@H](O)CO)n3)C2)c1Cl (stereo partly drawn) [Example 170, 2-[4-(2-Chloro-3-methoxyphenoxy)-2-oxo-2,5-dihydro-pyrrol-1-yl]-4-fluoro-4-methyl-pentanoic acid-[1-((R)-2,3-dihydroxy-propyl)-1H-pyrazol-3-yl]-amide] | 3.575 µM |
| CC(C)C[C@@H](C(=O)Nc1ccn(C[C@@H]2CNC(=O)O2)n1)N1CC(Oc2ccccc2Cl)=CC1=O [Example 172, (S)-2-[4-(2-chloro-phenoxy)-2-oxo-2,5-dihydro-pyrrol-1-yl]-4-methyl-pentanoic acid [1-((S)-2-oxo-oxazolidin-5-ylmethyl)-1H-pyrazol-3-yl]-amide] | 0.628 µM |
| CC[C@H](C)CC(C(=O)Nc1ccn(C[C@@H](O)CO)n1)N1CC(Oc2ccccc2Cl)=CC1=O (mixture of isomers) [Example 249, (S)-2-[4-(2-Chloro-phenoxy)-2-oxo-2,5-dihydro-pyrrol-1-yl]-4-methyl-hexanoic acid [1-((R)-2,3-dihydroxy-propyl)-1H-pyrazol-3-yl]-amide] | 0.125 µM |
| O=C(Nc1ccn(C[C@@H](O)CO)n1)[C@H](Cc1ccccc1)N1CC(Oc2ccccc2Cl)=CC1=O [Example 181, (S)-2-[4-(2-chloro-phenoxy)-2-oxo-2,5-dihydro-pyrrol-1-yl]-N-[1-((R)-2,3-dihydroxy-propyl)-1H-pyrazol-3-yl]-3-phenyl-propionamide] | 1.064 µM |
| COc1ccc(F)c(OC2=CC(=O)N([C@@H](CC(C)C)C(=O)Nc3ccn(C[C@@H]4COC(C)(C)O4)n3)C2)c1F [Example 118, (S)-2-[4-(2,6-Difluoro-3-methoxy-phenoxy)-2-oxo-2,5-dihydro-pyrrol-1-yl]-4-methyl-pentanoic acid [1-((R)-2,2-dimethyl-[1,3]dioxolan-4-yl-methyl)-1H-pyrazol-3-yl]-amide] | 0.256 µM |
| CC(C)C[C@@H](C(=O)Nc1ccn(C[C@@H](O)CO)n1)N1CC(Oc2cc(F)ccc2F)=CC1=O [Example 101, (S)-2-[4-(2,5-Difluoro-phenoxy)-2-oxo-2,5-dihydro-pyrrol-1-yl]-4-methyl-pentanoic acid [1-((R)-2,3-dihydroxy-propyl)-1H-pyrazol-3-yl]-amide] | 0.33 µM |

Source: US7741327B2 (Hoffmann-La Roche Inc., priority 2008, dated 2010)
